Measurements as given in patent US20240261443A1, “COMPOUNDS AND COMPOSITIONS USEFUL AS RADIOTRACERS FOR IMAGING OF REACTIVE OXIDATIVE SPECIES” (Wake Forest University Health Sciences, priority 2019, published 2024).

Key:
[1] = system: SCC-61 tumors; experiment: Post-PET biodistribution, SCC-61 tumor-bearing mice; format: in vivo
Procedure: Subsequently, post-PET biodistribution was performed in the same SCC-61 or rSCC-61 tumor-bearing mice injected with [^18F]KS1 (FIG. 16). […] High kidney and liver uptake were common with [^18F]radiotracer's distribution at 30 min post-injection.

[2] = system: SCC-61, G48, MD3-MB-231 and PC3 cancer cell lines; experiment: MTT assay, potency versus ascorbate across patient-derived cancer cell lines; format: cell-based, human; conditions: Example 13; SCC-61, PC3, and MD3-MB-231 cells
Procedure: The cells were seeded at density 5×10^3 cells/well. After 24 h pre-incubation period, cells were treated with 0.01 mM to 2.0 mM of freshly prepared KS1 and KS2 along with ascorbate (n=3) for 48 h. 0.2% of DMSO served as vehicle control. After 48 h, the solutions were removed from all plates and MTT assays performed following the published protocols. IC50 values are presented as mean±SD from at least three independent experiments.
There is growing evidence for a therapeutic role of ascorbate against several cancers (Creagan et al., Failure of High-Dose Vitamin C (Ascorbic Acid) Therapy to Benefit Patients with Advanced Cancer. New England Journal of Medicine 1979, 301 (13), 687-690; Chen et al., Pharmacologic ascorbic acid concentrations selectively kill cancer cells: action as a pro-drug to deliver hydrogen peroxide to tissues. Proceedings of the National Academy of Sciences of the United States of America 2005, 102 (38), 13604-13609; Prasad et al., High Doses of Multiple Antioxidant Vitamins: Essential Ingredients in Improving the Efficacy of Standard Cancer Therapy. Journal of the American College of Nutrition 1999, 18 (1), 13-25). […]

Row | target (tumor) to non-target (muscle) ratio ([1]; SCC-61 tumors, post-PET) | enrichment in SCC-61 tumors over rSCC-61 tumors ([1]; tumor: muscle ratio) | SMILES | selectivity (potency) versus ascorbate [2]
1 | 10.93 | ~2.5 fold | O=C1O/C(=C/CCl)C(O)=C1OCc1ccc(OCC[18F])cc1 [[^18F]KS1] | 
2 |  |  | O=C1O/C(=C/CCl)C(O)=C1OCc1ccc(OCCF)cc1 [KS1, (E)-5-(2-chloroethylidene)-3-(4-(2-fluoroethoxy)benzyloxy)-4-hydroxyfuran-2(5H)-one] | 1.6 to 2.5 fold
